Results on twelve compounds are retold here after PubChem BioAssay (NCI).

Among the test systems are M14 melanoma; RPMI-8226 leukemia; SNB-75 CNS; MDA-MB-435; HCT-116 colon; HCT-15 colon; SN12C renal; PC-3 prostate.
Assay in all cases: NCI anticancer screen, dose series, 48 h

SMILES strings stand for the structures.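 Test compounds were applied to cells in 96-well plates for 48 hours at 5 doses. GI50: concentration for 50% inhibition of growth. TGI marks complete inhibition of growth.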

In the case of `CNc1cc2oc(=O)cc(C)c2cc1C`, the TGI with M14 melanoma, with RPMI-8226 leukemia, in the test on SNB-75 CNS, in the test on MDA-MB-435, in the test with HCT-116 colon and in the test with HCT-15 colon was greater than 100 µM in each case. Besides, the TGI in the test on SN12C renal and with PC-3 prostate was greater than 100 µM each time.

With `CSC[C@H](NC(=O)COc1cccc2cnccc12)C(=O)NC(Cc1ccccc1)C(O)C(=O)N1CSC[C@H]1C(=O)NC(C)(C)C` (some centres undefined), the TGI in the test on M14 melanoma, with RPMI-8226 leukemia, with SNB-75 CNS, with MDA-MB-435, with HCT-116 colon and in the test on HCT-15 colon was greater than 100 µM throughout. Besides, the TGI in the test with SN12C renal and in the test on PC-3 prostate was greater than 100 µM in each case.

In the case of `C=C(CN(C)Cc1ccccc1)c1ccc(NC(=O)c2ccc(C(=C)CN(C)Cc3ccccc3)cc2)cc1`, the GI50 was greater than 100 µM in the test with M14 melanoma; 21.7 µM with RPMI-8226 leukemia; 13.9 µM in the test on SNB-75 CNS; greater than 100 µM with MDA-MB-435; 31.7 µM in the test on HCT-116 colon; 76.5 µM with HCT-15 colon. Further, the GI50 in the test with SN12C renal was greater than 100 µM; with PC-3 prostate, 11 µM. Further, the TGI in the test with M14 melanoma was greater than 100 µM; in the test on RPMI-8226 leukemia it was 53.6 µM; in the test with SNB-75 CNS, 32.2 µM; in the test on MDA-MB-435, greater than 100 µM; in the test on HCT-116 colon it was greater than 100 µM; with HCT-15 colon it was greater than 100 µM. In addition, the TGI is greater than 100 µM with SN12C renal and 23 µM in the test on PC-3 prostate.

For `O=[N+]([O-])c1cccnc1N=Nc1c(O)[nH]c2ccccc12`, the TGI in the test with M14 melanoma was 58.1 µM; with RPMI-8226 leukemia, 79.2 µM; in the test with SNB-75 CNS, 44.3 µM; in the test with MDA-MB-435 it was greater than 100 µM; in the test with HCT-116 colon, 40 µM; with HCT-15 colon, 16.5 µM. Further, the figures for the TGI in the test on SN12C renal and in the test on PC-3 prostate were 86.5 µM and 63 µM, respectively.

On to `C[N+](C)(C)CC(=O)N/N=C(/Cc1cc(=O)oc2cc(O)ccc12)C(=O)Nc1ccc(Cl)cc1`, for which the TGI in the test on M14 melanoma, with RPMI-8226 leukemia, with HCT-116 colon and in the test on SN12C renal was greater than 100 µM throughout.

As to `CN(Cc1cnc2nc(N)nc(N)c2n1)c1ccc(C(=O)N[C@@H](CCS(=O)(=O)O)C(=O)O)cc1`, the TGI with M14 melanoma, in the test on RPMI-8226 leukemia, in the test with SNB-75 CNS, in the test with MDA-MB-435, in the test on HCT-15 colon and in the test on SN12C renal was greater than 100 µM in each case. Besides, the TGI in the test with PC-3 prostate was greater than 100 µM. Moreover, in the test on SNB-75 CNS, the GI50 is 18.2 µM.

Consider `COc1ccc(Cl)cc1NC(=O)c1ccc(NC2=C(Cl)C(=O)N(Cc3ccccc3)C2=O)cc1`, for which the GI50 in the test with M14 melanoma is greater than 100 µM; in the test on MDA-MB-435, 99.7 µM; in the test with HCT-116 colon it was 37.7 µM; with HCT-15 colon, 10.7 µM; with SN12C renal, 23 µM; with PC-3 prostate, 52.6 µM. In addition, the TGI in the test with M14 melanoma, in the test on MDA-MB-435, in the test on HCT-116 colon, in the test on HCT-15 colon, in the test on SN12C renal and in the test on PC-3 prostate was greater than 100 µM each time.

For `O=C(Nc1nc(-c2c[nH]c3ccccc23)cs1)c1n[nH]c(=O)c2ccccc12`, the GI50 in the test with M14 melanoma was 3.48 µM; in the test on RPMI-8226 leukemia it was 0.957 µM; in the test on SNB-75 CNS it was 16.2 µM; in the test on MDA-MB-435 it was 3.96 µM; in the test with HCT-116 colon, 0.368 µM; in the test with HCT-15 colon, 0.29 µM. The GI50 was 10.8 µM with SN12C renal and 10.2 µM in the test with PC-3 prostate. Further, the TGI in the test on M14 melanoma was 20.1 µM; in the test on RPMI-8226 leukemia, 58.2 µM; in the test on SNB-75 CNS, greater than 67.8 µM; in the test on MDA-MB-435, greater than 100 µM; with HCT-116 colon it was greater than 44.5 µM; in the test with HCT-15 colon it was greater than 36.7 µM. For the same compound, the TGI with SN12C renal and in the test on PC-3 prostate was greater than 100 µM in each case.

For `COc1ccc(-c2c(C#N)c(N3CCOCC3)nc3[nH]c(=S)[nH]c(=S)c23)cc1OC`, the GI50 in the test on M14 melanoma is 81.6 µM; in the test on RPMI-8226 leukemia it was 9.74 µM; with MDA-MB-435 it was 54.8 µM; in the test on HCT-116 colon, 27.8 µM; in the test with HCT-15 colon it was 43.6 µM; in the test with SN12C renal it was 21.7 µM. Moreover, the GI50 in the test on PC-3 prostate is 40.3 µM. In addition, the TGI is greater than 100 µM in the test on M14 melanoma; 70.5 µM in the test on RPMI-8226 leukemia; greater than 100 µM in the test with MDA-MB-435; greater than 100 µM in the test with HCT-116 colon; greater than 100 µM with HCT-15 colon; 91.3 µM in the test with SN12C renal. The same compound had a TGI in the test with PC-3 prostate greater than 100 µM.

`COc1cc2c3c(n(C)c(=O)c2cc1OC)-c1cc2c(cc1C3=O)OCO2`: the TGI is greater than 100 µM with M14 melanoma; greater than 100 µM in the test with RPMI-8226 leukemia; 22.6 µM in the test on SNB-75 CNS; greater than 100 µM with MDA-MB-435; greater than 100 µM in the test on HCT-116 colon; greater than 100 µM in the test with HCT-15 colon. Besides, the TGI in the test with SN12C renal and with PC-3 prostate was greater than 100 µM in each case.

Regarding `COc1cc2c(cc1OCCCN1CCN(CCCOc3cc4c(cc3OC)C(=O)N3CC(F)(F)C[C@H]3C=N4)CC1)N=C[C@@H]1CC(F)(F)CN1C2=O`, the GI50 with M14 melanoma is 3.25 µM; in the test with RPMI-8226 leukemia, 2.2 µM; in the test on SNB-75 CNS it was 5.52 µM; in the test with MDA-MB-435, 2.94 µM; with HCT-116 colon it was 3.59 µM; in the test with HCT-15 colon, 16.2 µM. Besides, the GI50 in the test on SN12C renal is 4.05 µM; in the test on PC-3 prostate, 3.06 µM. The TGI in the test on M14 melanoma amounted to 16.5 µM; in the test on RPMI-8226 leukemia it was 7.73 µM; with SNB-75 CNS it was 21.1 µM; in the test on MDA-MB-435, 11.1 µM; with HCT-116 colon, 22.4 µM; with HCT-15 colon it was 36.7 µM. Also, the TGI turned out to be 19.5 µM in the test on SN12C renal and 9.74 µM in the test on PC-3 prostate.

With `CC[C@]1(O)C[C@H]2CN(CCc3c([nH]c4ccccc34)C(C(=O)OC)(c3cc4c(cc3OC)N(C)[C@H]3[C@@](O)(C(=O)OC)[C@H](OC(C)=O)[C@]5(CC)[C@@H]6C[C@@H]6CN6CC[C@]43[C@@H]65)C2)C1` (some centres undefined), the GI50 with M14 melanoma is 0.00365 µM; in the test on RPMI-8226 leukemia it was 0.00469 µM; in the test with SNB-75 CNS, 0.00437 µM; in the test on MDA-MB-435 it was less than 0.00143 µM; in the test on HCT-116 colon, 0.00348 µM; in the test on HCT-15 colon, 0.0374 µM. In addition, the GI50 in the test with SN12C renal was 0.00838 µM; with PC-3 prostate, 0.00296 µM. In addition, the TGI in the test with M14 melanoma was 0.254 µM; with RPMI-8226 leukemia, 2.07 µM; with SNB-75 CNS, 6.36 µM; in the test with MDA-MB-435 it was 0.00219 µM; in the test with HCT-116 colon, 4.13 µM; with HCT-15 colon, greater than 14.3 µM. In addition, the results for the TGI in the test on SN12C renal and in the test on PC-3 prostate were greater than 14.3 µM and greater than 11.8 µM, respectively.
